# Measured values: patent publication US12037354B2, “Cyclic pantetheine derivatives and uses thereof” (VectivBio Comet AG, priority 2018, dated 2024)
# Test system: primary culture of rat embryo mesencephalic cells (microglia, astrocytes and neurons)
# Assay: Neuroprotection against LPS damage (NO, TNF-α, IL-1β release, tyrosine hydroxylase positive neurons), Example 848
# Format: cell-based
# Conditions: 10 uM; for % reversion of NO release from neurons: after 5 days of LPS exposure
# Method: Drug preparation. […] The stock solutions will be prepared 1000× the concentration in 100% DMSO. The final concentration of the vehicle (DMSO) is set at 0.1%.
# Test animals. Pregnant Wistar rats (Janvier; France) are used for the study. They are group-housed and maintained in a room with controlled temperature (21-22° C.) and a reversed light-dark cycle (12 h/12 h; lights on: 17:30-05:30; lights off: 05:30-17:30) with food and water available ad libitum.
# The protocol is performed in 3 independent cultures. For each culture, each condition is performed in sextuplicate.
# Female rat of 15 days gestation is killed by cervical dislocation. Fetuses are removed from the uterus and their brains are harvested and placed in ice-cold medium (Leibovitz's L15 medium, Gibco). Only ventral mesencephalic flexure is used for the cell preparations. The midbrain is dissociated by trypsinization. The reaction is stopped, and the suspension is triturated and centrifuged. The pellet of dissociated cells is resuspended in culture medium consisted of DMEM-F12 (Gibco), containing 10% FBS (ATCC), 10% Horse serum (Gibco) and 2 mM L-glutamine (Gibco). Viable cells are counted and seeded on 96-well plates, precoated with poly-L-lysine. Cells are maintained in a humidified incubator at 37° C. in 5% CO2-95% air atmosphere. Half of the medium is changed on day 2 and day 5.
# Treatment. On day 7, culture media are removed and replaced by new medium consisting of DMEM-F12 (Gibco) supplemented with 2% FBS (ATCC), 2% Horse serum (Gibco) and 2 mM L-glutamine (Gibco) and containing vehicle or test substances. After 1-hour exposure, LPS at 10 ng/ml is added and exposure further continued for 24 hours or 5 days period.
# Inflammatory response measurement and neuronal death evaluation. NO production is measured in the media 24 h and 5 days after LPS exposure using the Griess reagent kit (Molecular Probes). The Griess reagent Assay is a colorimetric reaction assay which measures the conversion of a sulfanilic salt into an azo dye product by nitrite. Visible wavelength absorbance data is collected using a 96-well plate reader at 570 nm (Multiskan EX, Thermo Fisher, France).
# IL-10 and TNF-α release are measured in the media 24 h after LPS exposure using the ELISA development kit (PeproTech). The ELISA plate, previously coated with anti-IL-10 or anti-TNF-α antibody at 1 μg/ml, is incubated 1 h with PBS containing 1% of BSA (bovine serum albumin). […] Visible wavelength absorbance data is collected using a 96-well plate reader at 405 nm with wavelength correction set at 650 nm (Multiskan EX, Thermo Fisher, France). […]
# Statistical Analysis. The drug-induced effect on NO and cytokines is calculated by setting the response of the LPS-stimulated control as 100%. […]
smiles,measurement,setting,value
CC(=O)CC(=O)SCCNC(=O)CCNC(=O)[C@@H]1OP(=O)(O)OCC1(C)C [Compound 42],% reversion of TH positive neurons,after 5 days of LPS exposure (Example 949),≥15%
same,% reversion of TH positive neurons,after 5 days of LPS exposure (Example 950),≥50%
same,% reversion of NO release from neurons,compared to LPS induction alone,≥10%
same,% reversion of NO release from neurons,LPS-induced NO release,≥10%
